PMC11219871, “Epigenetic-based differentiation therapy for Acute Myeloid Leukemia” (Nature Communications, 2024)
Like-named read-outs stand apart in the source and are kept apart here.

System: ML-2
Test: Acetylome analysis (Acetyl-K enrichment, LC-MS/MS)
Type: cell-based, human
Conditions: for Acetyl-K sites regulated, Number, Histone proteins / Acetyl-K sites regulated, Number, Non-histone proteins / Acetyl-K sites regulated, Percentages, Histone proteins / Acetyl-K sites regulated, Percentages, Non-histone proteins: Fig 4G; for Acetyl-K sites: Down-regulated, % / Acetyl-K sites: Down-regulated, Number / Acetyl-K sites: Non-regulated, % / Acetyl-K sites: Non-regulated, Number / Acetyl-K sites: Quantified (total number) / Acetyl-K sites: Regulated, % / Acetyl-K sites: Regulated, Number / Acetyl-K sites: Up-regulated, % / Acetyl-K sites: Up-regulated, Number: ML-2 (Fig 4C); for Acetyl-K sites, Down-regulated / Acetyl-K sites, Up-regulated: Fig. 4C; for regulated Acetyl-K sites in Histone proteins / regulated Acetyl-K sites in Non-histone proteins: Fig. 4G; for percentage of Acetyl-K sites regulated: of 3618 quantified
Description: Cellular pellets were lysed for 15 min at 95 °C in 4% SDS, 100 mM Hepes/NaOH pH 8.0, containing 5 mM sodium butyrate and 5 mM Nicotinamide. After cooling down, lysates were incubated at 25 °C with 10 units of DNAse (Benzonase, Merk) and sonicated for 15 min in a Bioruptor for DNA shearing. Protein concentration was determined using microBCA, using BSA as standard. Samples were digested using on-bead protein aggregation capture (PAC) with ReSyn Biosciences MagReSyn® Hydoxyl microparticles (ratio Protein/Beads 1:5) in an automated King Fisher instrument (Thermo). Proteins were digested for 16 h at 37 C with LysC/Trypsin mix at a protein: enzyme ratio of 1:100 in 50 mM TEAB pH 8.0 (Trypsin Sequence grade, Sigma; LysC, Wako). The resulting peptides were speed-vac dried and dissolved in 100 µL of 200 mM HEPES pH 8.5.
Peptides (500 µg) were labeled with Thermo Scientific TMTpro 18plex™ Isobaric reagents for 1 h at 25 C. Reaction was quenched by adding 5% hydroxylamine for 15 min. Samples were pooled at a 1:1 ratio based on the total peptide amount, determined by comparing overall signal intensities on a regular LC-MS/MS run. The final mixture was desalted using a 500 mg Sep-Pak C18t cartridge (Waters) and dried prior to high pH reverse phase HPLC pre-fractionation.
Labeled peptides were fractionated offline through a high pH reverse phase chromatography using an Ultimate 3000 HPLC system equipped with a sample collector. Briefly, peptides were dissolved in 1200 µL of Buffer A (10 mM NH4OH) and loaded onto a XBridge BEH130 C18 column (3.5 µm, 250 mm length and 3.5 mm ID, Waters). Buffer B was composed of 10 mM NH4OH in 90% CH3CN. The following gradient was used at a flow rate of 500 µL/min: 0-50 min 0-25% B, 50-56 min 25-60% B, 56-57 min 60-90% B. One-minute fractions (500 µL) from […] were collected and neutralized with 10% formic acid. Based on the UV absorbance at 280 nm, 95% of the volume of 40 fractions was pooled in 5 fractions for Acetyl-Lysine enrichment. The 5% of these fractions was kept for proteome analysis. Pooled fractions were snap-frozen and lyophilized.
Lyophilized peptides (1.5 mg) from each pool were immuno-affinity purified with the PTMScan HS Acetyl-Lysine Motif (Ac−K) kit (Cell Signaling Technology). For each pool, three consecutive immuno-purifications (IPs) were performed using the manufacturer’s protocol in an automated King Fisher instrument (Thermo). Elution of purified peptides was performed in two consecutive steps of 50 μl of 0.15% TFA. Samples were desalted with C18 stage tips and eluates were vacuum dried and resuspended in 0.1% formic acid for subsequent analysis by LC−MS/MS.
LC-MS/MS was done by coupling an UltiMate 3000 RSLCnano LC system to an Orbitrap Exploris 480 mass spectrometer (Thermo Fisher Scientific). Samples were loaded into a trap column (Acclaim™ PepMap™ 100 C18 LC Columns 5 µm, 20 mm length) for 3 min at a flow rate of 10 µL/min in 0.1% FA. Peptides were then transferred to an EASY-Spray PepMap RSLC C18 column (Thermo) (2 µm, 75 µm x 50 cm) operated at 45 °C and separated using a 90 min effective gradient (buffer A: 0.1% FA; buffer B: 100% ACN, 0.1% FA) at a flow rate of 250 nL/min. The gradient used was, from 4% to 6% of buffer B the first 2 min, from 6% to 33% B the next 58 min, plus 10 additional minutes at 98% B.
The mass spectrometer was operated in a data-dependent mode, with an automatic switch between MS and MS/MS scans using a top 15 method. (Intensity threshold ≥ 1e4, dynamic exclusion of 20 sec and excluding charges unassigned, +1 and ≥ +7). MS spectra were acquired from 350 to 1500 m/z with a resolution of 60,000 FMHW (200 m/z). Ion peptides were isolated using a 0.7 Th window and fragmented using higher-energy collisional dissociation (HCD) with a normalized collision energy NCE of 36. MS/MS spectra were acquired with a fixed first mass of 120 m/z and a resolution of 45,000 FMHW (200 m/z). […]

[1] = ML-2, first (superseded) acetylome experiment, peer review file
[2] = distribution of acetylated sites in the acetylated proteins (Fig 4D)

| SMILES | Acetyl-K sites regulated, Number, Histone proteins | Acetyl-K sites regulated, Number, Non-histone proteins | Acetyl-K sites regulated, Percentages, Histone proteins | Acetyl-K sites regulated, Percentages, Non-histone proteins | Acetyl-K sites: Down-regulated, % | Acetyl-K sites: Down-regulated, Number | Acetyl-K sites: Non-regulated, % | Acetyl-K sites: Non-regulated, Number | Acetyl-K sites: Quantified (total number) | Acetyl-K sites: Regulated, % | Acetyl-K sites: Regulated, Number | Acetyl-K sites: Up-regulated, Number | fraction of regulated acetylation sites upregulated (ML-2, 25% GI50, 12 h) | Acetyl-K sites, Down-regulated (ML-2, 25% GI50, 12 h) | Acetyl-K sites, Up-regulated (ML-2, 25% GI50, 12 h) | regulated Acetyl-K sites in Histone proteins (ML-2, 25% GI50, 12 h) | regulated Acetyl-K sites in Non-histone proteins (ML-2, 25% GI50, 12 h) | percentage of Acetyl-K sites regulated (ML-2, 25% GI50, 12 h) | acetyl K-sites regulated specifically by the compound [1] | fraction of regulated acetylation sites upregulated [1] | other results |
| --- | --- | --- | --- | --- | --- | --- | --- | --- | --- | --- | --- | --- | --- | --- | --- | --- | --- | --- | --- | --- | --- |
| COc1cc2nc(-c3cc(C)oc3C)cc(NCC3CCN(c4ncc(C(=O)NO)cn4)CC3)c2cc1OC [CM-1758, 2-[4-[[[2-(2,5-dimethyl-3-furyl)-6,7-dimethoxy-4-quinolyl]amino]methyl] -1-piperidyl]pyrimidine-5-carbohydroxamic acid] | 55 | 681 | 7.5 | 92.5 | 10.9% | 395 | 79.7% | 2882 | 3618 | 20.3% | 736 | 341 | 46.3% | 395 | 341 | 55 | 681 | 20.3% | 80 | 61.2% | Number of proteins with >5 Acetyl-K sites per protein: 14; Acetyl-K sites: Up-regulated, %: 9.4%; Number of proteins with 1 Acetyl-K site per protein [2]: 381; Number of proteins with 2 Acetyl-K sites per protein [2]: 73; Number of proteins with 3 Acetyl-K sites per protein [2]: 31; Number of proteins with 4 Acetyl-K sites per protein [2]: 6 |
| O=C(CCCCCCC(=O)Nc1ccccc1)NO [Vorinostat, reference compound] | 40 | 469 | 7.9 | 92.1 | 7.7% | 232 | 85.9% | 3109 | 3618 | 14.1% | 509 | 277 | 54.4% | 232 | 277 | 40 | 469 | 14.1% | 121 | 37.3% | Number of proteins with 1 Acetyl-K site per protein [2]: 298; Number of proteins with 2 Acetyl-K sites per protein [2]: 54; Number of proteins with 3 Acetyl-K sites per protein [2]: 16; Number of proteins with 4 Acetyl-K sites per protein [2]: 5; Number of proteins with >5 Acetyl-K sites per protein [2]: 6 |
| Cc1[nH]c2ccccc2c1CCNCc1ccc(/C=C/C(=O)NO)cc1 [Panobinostat, reference compound] | 52 | 587 | 8.1 | 91.9 | 8.9% | 322 | 82.3% | 2979 | 3618 | 17.7% | 639 | 317 | 49.6% | 322 | 317 | 52 | 587 | 17.7% | 232 | 53.2% | Number of proteins with >5 Acetyl-K sites per protein: 11; Acetyl-K sites: Up-regulated, %: 8.8%; Number of proteins with 1 Acetyl-K site per protein [2]: 354; Number of proteins with 2 Acetyl-K sites per protein [2]: 56; Number of proteins with 3 Acetyl-K sites per protein [2]: 25; Number of proteins with 4 Acetyl-K sites per protein [2]: 6 |
| COc1cc2nc(-c3ccc(C)o3)cc(NCC3CCN(c4ncc(C(=O)NO)cn4)CC3)c2cc1OC [CM-444, 2-[4-[[[6,7-dimethoxy-2-(5-methyl-2-furyl)-4-quinolyl]amino]methyl]-1-piperidyl]pyrimidine-5-carbohydroxamic acid] | 58 | 766 | 7 | 93 | 11.9% | 429 | 77.2% | 2794 | 3618 | 22.8% | 824 | 395 | 47.9% | 429 | 395 | 58 | 766 | 22.8% | 202 | 49.7% | Number of proteins with >5 Acetyl-K sites per protein: 14; Acetyl-K sites: Up-regulated, %: 10.9%; Number of proteins with 1 Acetyl-K site per protein [2]: 421; Number of proteins with 2 Acetyl-K sites per protein [2]: 79; Number of proteins with 3 Acetyl-K sites per protein [2]: 29; Number of proteins with 4 Acetyl-K sites per protein [2]: 14 |
